We go through 15 molecules from paper PMC10879279 (Frontiers in Behavioral Neuroscience, 2024).

Entries after “also recorded” stand apart in the source; their conditions may differ. Read-outs that look alike come from different tables or passages of the source. Some results are limits rather than exact numbers.

The subject of assay [1] is mGluR4. To be noted: ref Mathiesen et al., 2003; Dalton et al., 2017; cited from earlier work.
In assay [2] the test system is zebrafish. To be noted: ref Malyshev et al., 2021; cited from earlier work. The text has this:
We carried out the two most common tests to evaluate the fish response to the stressful conditions of novelty (NTT) and bright light (LDB). Figure 1 represents the summary data of the effects of the LCGM peptides on the NTT and LDB results relative to each group control, expressed as z-scores. The Supporting Information contains the examples of motor tracks (Supplementary Figures S1, S2), and primary data (Supplementary Figures S3, S4), and Table 2 provides the results of the two-way ANOVA.

The next assay relates to mGluR1. In words: Luciferase reporter assay, mGluR1. It is filed as cell-based. To be noted: DHPG 10 µM; (−)-PHCCC 40 µM; HEK293, N = 3. The procedure: (§1) Figure S5. The mGluR1- and mGliR4-luciferase reporter assay results. HEK293 cells transfected with genetic reporter systems were treated with DHPG (10 µM) or DHPG (10 µM) + (−)-PHCCC (40 µM) in the case of mGluR1 and with L-AP4 (1 µM) or L-AP4 (1 µM) + (−)-PHCCC (40 µM) in the case of mGluR4. LCGM-10 was administered at a dose of 20 and 200 µM. […] The data are presented as the mean ± standard deviation for three biological replicates (N=3 in each group). * P < 0.01 versus the transfected control + control agonist.

For another assay, the system named is mGluR5. In words: Luciferase reporter assay, mGluR5. To be noted: transfected control cells; for antagonist effect on mGluR5 activity (in words): SIB 1757 10 μM + CHPG 1 mM. Background: Reporter assays use an easily measured gene product as a stand-in for the process of interest.
The subject of a further assay is ADHD patients. To be noted: medium range, smaller than stimulants, ref Cortese et al., 2018; cited from earlier work. The text has this:
To sum up, the development of new medications for disorders with an excessive impulsivity as a major component is of high interest for both academy and industry. Addictions, including substance use disorder and gambling, faces the unmet need for novel medicines ([Rash et al., 2016]). In case of ADHD there is also a need for new medications with novel mechanisms of action since currently approved drugs show a non-response or lack efficacy in a significant number of patients ([Mechler et al., 2022]). Routinely used stimulant methylphenidate is efficient in up to 70% of cases ([Bodey, 2011]), and ...

Assay [3] relates to mGluR4. In words: Luciferase reporter assay, mGluR4. In kind it is cell-based. To be noted: L-AP4 1 µM; (−)-PHCCC 40 µM; HEK293, N = 3. The procedure:
as §1

Another assay concerns mice. The arrangement: method as in Kobayashi et al., 2020. To be noted: caffeine 25 mg/kg, ref Kobayashi et al., 2020; cited from earlier work.
Assay [4] deals with zebrafish. The arrangement: method as in Maximino et al., 2014. To be noted: similar to LCGM-10 and LCGM-15, ref Maximino et al., 2014, cited from earlier work.
The test system of a further assay is Wistar rats. Nature of the assay: Home cage spontaneous locomotor activity (SLA). It is filed as in vivo, rat (Wistar). The procedure:
Wildtype D. rerio (128 fish, shortfin phenotype, 6–8 months of age, male to female ratio 50: 50) were kept in a ZebTEC recirculating system (Tecniplast S.p.a, Buguggiate, Italy), and housed under a 14/10-h photoperiod (lights on at 08: 00 and off at 22: 00). The system parameters were maintained automatically with water set at 28°C, pH 6.8–7.5, […], and constant aeration. Feeding was carried out twice a day with special food for fish (Special Diet Services, Scientific Fish Food, SDS 300–400). In total, 30 male Sprague Dawley rats were used in the behavioral screening study, and 53 male Wistar rats in the locomotion study (N = 23) and the delay discounting test (N = 30). The animals were housed under constant environmental conditions (12-h photoperiod at 22 ± 2°C) with ad libitum access to food and water. All animal experiments were conducted in accordance with the European Directive 2010/63/EU of the European Parliament (Council of 22 September 2010 on the protection of animals used for scientific purposes) and were approved by the local Bioethics Commissions. All manipulations with animals were carried out at the end of the 14-day adaptation period.
We administered LCGM peptides intranasally. Peptides were dissolved in saline at a concentration appropriate for the dosage. For administration, the rat was held in a horizontal position, with its head slightly tilted back. Then, using an automatic laboratory pipette, no more than 10 μL of the peptide solution was carefully introduced into each nostril of the rat. After visually confirming that the entire volume of liquid entered the animal’s nose, the rats were returned to their home cage. […] This route of administration has several advantages for short peptides, such as rapid systemic drug absorption and the potential to bypass the blood–brain barrier more effectively and access the central nervous system ([Pires et al., 2009]; [Lochhead and Thorne, 2012]). For patients, this method is relatively noninvasive and limits the side effects associated with peripheral administration of substances ([Meredith et al., 2015]).
Spontaneous locomotor activity (SLA) was measured using the Activiscop setup (NewBehavior Inc., Switzerland) ([Madani et al., 2003]). The animals were kept in home cages with free access to food and water. Motor activity was recorded using an infrared sensor located above each cage. The experiment lasted 2 days: On the first day, baseline activity was recorded, and then Wistar rats received LCGM-10 (5 mg/kg in saline, intranasal) and caffeine (30 mg/kg in saline, intraperitoneal) and were recorded for another 24 h. The days were divided into day 1 (12: 00–18: 59), night (19: 00–06: 59), and day 2 (07: 00–11: 59). The results are presented as the number of behavioral acts per minute (arbitrary units [a.u.]) for each animal. The experiment was performed by the Serbsky National Medical Research Center for Psychiatry and Narcology on a contract basis.

The next assay has as its system human mGluR5. Nature of the assay: Calcium flux imaging, CHO-mGluR5 cells. In kind it is cell-based. The text has this: mGluR5 activation leads to Ca^2+ influx that could be blocked by adding a specific antagonists or NAMs ([Kettunen et al., 2002]; [Beggiato et al., 2018]). Elevation of intracellular Ca^2+ levels via the phospholipase C pathway is typical for all Gq-coupled GPCRs ([Liu et al., 2008]) and can be detected using a penetrating Ca^2+ indicator.
The CHO cell line stably expressing human mGluR5 was generated using T-Rex System (Thermo Fisher Scientific Inc., United States) according to the manufacturer’s instructions. Briefly, complementary DNA (cDNA) encoding human mGluR5 was subcloned into the pcDNA4/TO inducible expression vector, which was transfected into CHO cells carrying the pcDNA6/TR regulatory vector that expresses the tetracycline repressor. After 2 weeks of selection using 5 μg/mL blasticidin (Thermo Fisher Scientific Inc.) and 250 μg/mL zeocin (Thermo Fisher Scientific Inc.), pools of cells were screened for the expression of mGluR5 in the agonist-induced Ca^2+ uptake assay. Positive cells were expanded and used. mGluR5 expression was induced by adding up to 1 μg/mL of tetracycline (Thermo Fisher Scientific Inc.) 16 h before testing.
Fluorescent assays were performed using NOVOstar (BMG LABTECH, Germany). CHO-mGluR5 cells were seeded into black-walled, clear-bottomed 96-well plates at a density of 75,000 cells per well (complete media without antibiotics and containing 1 μg/mL of tetracycline to induce receptor expression) and were cultured overnight at 37°C. The cells were then loaded with the cytoplasmic calcium indicator Fluo-4 AM using the Fluo-4 Direct™ Calcium Assay Kits (Thermo Fisher Scientific Inc.) and incubated in the dark at 37°C for 60 min, and then at 25°C for 60 min. The buffer alone (control) or the buffer containing different concentrations of LCGM-10 (0.02, 2, 20, and 200 μM), LCGM-15 (0.02, 2, 20, and 200 μM), or 2-methyl-6-(phenylethynyl) pyridine ([MPEP] 0.1, 1, 10, and 100 μM; Sigma-Aldrich, United States) were added to the cells (in six replicate wells). […] The measurements were performed at pH 7.4 and 37°C.
In general terms: Calcium flux is commonly read through the fluorescence of an indicator in the cells.

Another assay deals with rodents. To be noted: ref Guimaraes et al., 2015, cited from earlier work. The text has this:
Therefore, we evaluated the potential of LCGM-10 as a therapeutic in male rats submitted to the OF and EPM. […] The importance of mGluR5 for modulating motor behavior has been reported in pharmacological ([Mcgeehan et al., 2004]; [Guimaraes et al., 2015]) as well as knockout ([Gray et al., 2009]; [Jew et al., 2013]; [Ribeiro et al., 2014]) studies in rodents, with so ...

Turning to `Cc1cccc(/C=C/c2ccccc2)n1` [SIB-1893], the “PAM activity at mGluR4 (in words)” value in the assay on mGluR4 [1] is listed as “able to act as PAMs of mGluR4”.

For `CN1C(=O)CN=C(c2ccccc2)c2cc(Cl)ccc21` [diazepam], in the assay with zebrafish [2], the “anxiolytic-like activity (in words)” value is “anxiolytic-like activity”.

With `N[C@H](C(=O)O)c1cc(O)cc(O)c1` [DHPG], the “reference ligand effect on mGluR1 (in words)” value in the assay with mGluR1 is on record as “induced luciferase signals”.

Consider `NC(C(=O)O)c1cc(O)ccc1Cl` (racemic) [CHPG], for which, in the assay on mGluR5 (CHPG 1 mM), the “agonist effect on luciferase signal (in words)” value is “enhanced; also recorded: induced a luciferase signal”.

Take `Clc1cccc(Cl)c1N=C1NCCN1` [clonidine]: in the assay with ADHD patients, the “effect size of non-stimulants” value is listed as at most 60%.

Turning to `N=C(N)NC(=O)Cc1c(Cl)cccc1Cl` [guanfacine], in the assay on ADHD patients, the “effect size of non-stimulants” value is listed as at most 60%.

Turning to `N[C@@H](CCP(=O)(O)O)C(=O)O` [L-AP4], the “reference ligand effect on mGluR4 (in words)” value in the assay with mGluR4 [3] is recorded as “induced luciferase signals”.

Regarding `CNCC[C@@H](Oc1ccccc1C)c1ccccc1` [atomoxetine], the “effect size of non-stimulants” value in the assay on ADHD patients is recorded as at most 60%.

As to `Cn1c(=O)c2c(ncn2C)n(C)c1=O` [caffeine], the “duration of SLA increase” value in the assay with mice was “up to 3 h”. Moreover, the “effect on locomotion (in words)” value in the assay on zebrafish [4] (caffeine 10 mg/kg) was “motor-stimulating effects”. Also, the “SLA at night (in words)” value in the assay on Wistar rats (LCGM-10 5 mg/kg intranasal or caffeine 30 mg/kg intraperitoneal, night (19:00–06:59), F2, 20 = 0.6, p = 0.56) was “no effects of treatment on the nighttime activity”. Moreover, in the assay with Wistar rats (LCGM-10 5 mg/kg intranasal, caffeine 30 mg/kg intraperitoneal, 30-min intervals), the “duration of SLA increase after administration” value is listed as “up to 90 min”. Besides, the “SLA on day 1 (in words)” value in the assay with Wistar rats (caffeine 30 mg/kg intraperitoneal, day 1 (12:00–18:59), N = 7–8) is “enhanced SLA; also recorded: significant induction of SLA”. For the same molecule, the “SLA on day 2 (in words)” value in the assay on Wistar rats (caffeine 30 mg/kg intraperitoneal, day 2 (07:00–11:59), N = 7–8) was “hypokinesia; also recorded: significant reduction in SLA”. In addition, the “hypokinetic rebound (in words)” value in the assay with Wistar rats (single administration, LCGM-10 compared with caffeine) is reported as “followed by a locomotor depression”.

In the case of `CC(NC(C)(C)C)C(=O)c1cccc(Cl)c1` (stereo not shown) [bupropion], the “effect on locomotion (in words)” value with zebrafish [4] (bupropion 30 mg/kg) is reported as “motor-stimulating effects”.

`N[C@@H](CCC(=O)O)C(=O)[O-].[Na+]` [GluNa]: the “agonist effect on Ca2+ (in words)” value in the assay with human mGluR5 (GluNa 1 mM vs non-activated cells, peak fluorescence, N = 7 (activated), N = 5 (basal)) was “enhanced fluorescence peak intensity; also recorded: enhanced Ca^2+ influx”.

With `Cc1cccc(C#Cc2ccccc2)n1` [MPEP, 2-methyl-6-(phenylethynyl) pyridine], the “effect on GluNa-evoked Ca2+ influx (in words)” value in the assay with human mGluR5 (vs 1 mM GluNa, Fluo-4 AM, 3 min preincubation 37°C, pH 7.4, peak fluorescence, N = 6) is listed as “effectively blocked GluNa-evoked calcium oscillations in cells at all tested doses”. Moreover, in the assay with human mGluR5 (vs activated control (1 mM GluNa), peak fluorescence, q < 0.05, N = 6 each), the “concentrations with significant reduction of intracellular Ca2+ levels” value fell in the range of 0.1 to 100 µM. Moreover, the “PAM activity at mGluR4 (in words)” value with mGluR4 [1] is “able to act as PAMs of mGluR4”. Also, the “effect on locomotion (in words)” value with rodents (applied to olfactory bulbs, dorsolateral striatum, dorsal hippocampus) was “stimulatory effect on locomotion”. In the assay on rodents (local application), the “brain regions without locomotor stimulation (in words)” value was “not primary motor area and ventral striatum”.

`Cc1nc(C#Cc2cccnc2)cs1` [MTEP]: in the assay on mGluR4 [1], the “PAM activity at mGluR4 (in words)” value was “The effect is not observed”.

`O=C(Nc1ccccc1)C12CC1/C(=N\O)c1ccccc1O2` (single isomer, unassigned; (-)) [(−)-PHCCC]: the “reference ligand effect on mGluR4 (in words)” value with mGluR4 [3] is “enhanced L-AP4-induced mGluR4 activity”. For the same molecule, in the assay on mGluR1, the “reference ligand effect on mGluR1 (in words)” value was “inhibited DHPG-induced mGluR1 activity”.

In the case of `Cc1ccc(O)c(N=Nc2ccccc2)n1` [SIB 1757], in the assay with mGluR4 [1], the “PAM activity at mGluR4 (in words)” value is “The effect is not observed”. In addition, the “antagonist effect on mGluR5 activity (in words)” value is “inhibited mGluR5 activity” in the assay on mGluR5 and “depleted” in the assay on mGluR5 (listed as SIB1757).
